# Source: publication PMC10436550, “Subacute toxicity evaluations of LPM3480392 in rats, a full µ-opioid receptor biased agonist” (Frontiers in Pharmacology, 2023)
# Test system: Sprague Dawley (SD) rats
# Assay: Hematology, 4-week subacute toxicity study
# [1] = female rats, 0.6 mg/kg/day, End of dosing phase
# [2] = female rats, 0.6 mg/kg/day, End of recovery phase
# [3] = female rats, 1.2 mg/kg/day, End of dosing phase
# [4] = female rats, 1.2 mg/kg/day, End of recovery phase
# [5] = female rats, 2.4 mg/kg/day, End of dosing phase
# [6] = female rats, 2.4 mg/kg/day, End of recovery phase
# [7] = female rats, end of dosing phase
# [8] = male rats, 0.6 mg/kg/day, End of dosing phase
# [9] = male rats, 0.6 mg/kg/day, End of recovery phase
# [10] = male rats, 1.2 mg/kg/day, End of dosing phase
# [11] = male rats, 1.2 mg/kg/day, End of recovery phase
# [12] = male rats, 2.4 mg/kg/day, End of dosing phase
# [13] = male rats, 2.4 mg/kg/day, End of recovery phase
smiles,measurement,setting,value
Fc1ccc([C@]2(CCNCc3cccc(Cl)c3)CCO[C@]3(CCOC3)C2)nc1 [LPM3480392],LYM,[1],4.17 ± 0.90 10^9/L
same,LYM%,[1],86.1 ± 5.8%
same,MCV,[1],58.1 ± 1.5 fL
same,MONO,[1],0.05 ± 0.02 10^9/L
same,MONO%,[1],1.1 ± 0.4 %
same,NEU,[1],0.51 ± 0.26 10^9/L
same,NEU%,[1],10.6 ± 5.5%
same,PLT,[1],1072 ± 103 10^9/L
same,RBC,[1],6.90 ± 0.35 10^12/L
same,WBC,[1],4.84 ± 0.93 10^9/L
same,LYM,[2],3.46 ± 0.53 10^9/L
same,LYM%,[2],85.8 ± 4.4 %
same,MCV,[2],56.4 ± 1.2 fL
same,MONO,[2],0.04 ± 0.02 10^9/L
same,MONO%,[2],1.1 ± 0.4 %
same,NEU,[2],0.42 ± 0.17^* 10^9/L
same,NEU%,[2],10.6 ± 4.8 %
same,PLT,[2],975 ± 144 10^9/L
same,RBC,[2],7.56 ± 0.22 10^12/L
same,WBC,[2],4.03 ± 0.57 10^9/L
same,LYM,[3],4.21 ± 1.29 10^9/L
same,LYM%,[3],85.7 ± 7.2%
same,MCV,[3],58.7 ± 2.1 fL
same,MONO,[3],0.05 ± 0.02 10^9/L
same,MONO%,[3],0.9 ± 0.3 %
same,NEU,[3],0.50 ± 0.24 10^9/L
same,NEU%,[3],11.1 ± 7.2%
same,PLT,[3],1064 ± 104 10^9/L
same,RBC,[3],6.59 ± 0.26^* 10^12/L
same,WBC,[3],4.87 ± 1.28 10^9/L
same,LYM,[4],2.95 ± 0.75 10^9/L
same,LYM%,[4],85.9 ± 3.0 %
same,MCV,[4],56.6 ± 1.8 fL
same,MONO,[4],0.04 ± 0.01 10^9/L
same,MONO%,[4],1.2 ± 0.4 %
same,NEU,[4],0.35 ± 0.08^* 10^9/L
same,NEU%,[4],10.6 ± 2.5 %
same,PLT,[4],975 ± 42 10^9/L
same,RBC,[4],7.44 ± 0.33 10^12/L
same,WBC,[4],3.42 ± 0.78 10^9/L
same,LYM,[5],2.53 ± 0.59 10^9/L
same,LYM%,[5],81.1 ± 5.3%
same,MCV,[5],58.1 ± 1.9 fL
same,MONO,[5],0.03 ± 0.02^* 10^9/L
same,MONO%,[5],1.0 ± 0.3 %
same,NEU,[5],0.51 ± 0.29 10^9/L
same,NEU%,[5],15.4 ± 4.6%
same,PLT,[5],946 ± 108^* 10^9/L
same,RBC,[5],6.57 ± 0.30^* 10^12/L
same,WBC,[5],3.15 ± 0.87 10^9/L
same,LYM,[6],3.02 ± 0.62 10^9/L
same,LYM%,[6],83.7 ± 3.4 %
same,MCV,[6],56.8 ± 0.8 fL
same,MONO,[6],0.04 ± 0.01 10^9/L
same,MONO%,[6],1.2 ± 0.3 %
same,NEU,[6],0.46 ± 0.09^* 10^9/L
same,NEU%,[6],12.8 ± 2.8 %
same,PLT,[6],998 ± 45 10^9/L
same,RBC,[6],7.45 ± 0.17 10^12/L
same,WBC,[6],3.60 ± 0.67 10^9/L
same,Magnitude of change of MCV,[7],less than 5%
same,Magnitude of change of PLT,[7],< 15%
same,Magnitude of change of RBC,[7],< 6%
same,EOS,[8],0.042 ± 0.013 10^9/L
same,EOS%,[8],0.90 ± 0.42%
same,MONO,[8],0.07 ± 0.03 10^9/L
same,MONO%,[8],1.3 ± 0.6%
same,RBC,[8],7.05 ± 0.32 10^12/L
same,RET,[8],0.300 ± 0.051 10^12/L
same,RET %,[8],4.26 ± 0.77%
same,WBC,[8],5.19 ± 1.38 10^9/L
same,EOS,[9],0.046 ± 0.018 10^9/L
same,EOS%,[9],1.14 ± 0.38%
same,MONO,[9],0.04 ± 0.02 10^9/L
same,MONO%,[9],1.0 ± 0.4%
same,RBC,[9],7.96 ± 0.24 10^12/L
same,RET,[9],0.144 ± 0.021 10^12/L
same,RET %,[9],1.81 ± 0.30%
same,WBC,[9],4.04 ± 1.12 10^9/L
same,EOS,[10],0.035 ± 0.016^* 10^9/L
same,EOS%,[10],0.77 ± 0.39%
same,MONO,[10],0.05 ± 0.02 10^9/L
same,MONO%,[10],1.1 ± 0.3%
same,RBC,[10],7.06 ± 0.32 10^12/L
same,RET,[10],0.331 ± 0.062^* 10^12/L
same,RET %,[10],4.70 ± 0.92 %
same,WBC,[10],4.56 ± 0.55 10^9/L
same,EOS,[11],0.042 ± 0.013 10^9/L
same,EOS%,[11],0.90 ± 0.12%
same,MONO,[11],0.04 ± 0.02 10^9/L
same,MONO%,[11],0.9 ± 0.3%
same,RBC,[11],7.99 ± 0.29 10^12/L
same,RET,[11],0.132 ± 0.017 10^12/L
same,RET %,[11],1.65 ± 0.21%
same,WBC,[11],4.50 ± 1.16 10^9/L
same,EOS,[12],0.022 ± 0.014^* 10^9/L
same,EOS%,[12],0.49 ± 0.29 %
same,MONO,[12],0.04 ± 0.02^* 10^9/L
same,MONO%,[12],0.9 ± 0.4%
same,RBC,[12],7.05 ± 0.37 10^12/L
same,RET,[12],0.387 ± 0.053^* 10^12/L
same,RET %,[12],5.51 ± 0.83 %
same,WBC,[12],4.24 ± 0.98 10^9/L
same,EOS,[13],0.032 ± 0.011 10^9/L
same,EOS%,[13],0.66 ± 0.21%
same,MONO,[13],0.05 ± 0.02 10^9/L
same,MONO%,[13],1.1 ± 0.3%
same,RBC,[13],7.62 ± 0.37 10^12/L
same,RET,[13],0.157 ± 0.008 10^12/L
same,RET %,[13],2.07 ± 0.11 %
same,WBC,[13],5.02 ± 0.40 10^9/L
